ChEMBL document CHEMBL3885881, “DrugMatrix”

Organism: Rattus norvegicus
Experiment: DrugMatrix - Regimen: Daily Repeat
Assay type: toxicity, organism-based, Sprague-Dawley
Set-up: regimen Daily Repeat, gender Male, age 6-8 weeks
Conditions: in vivo, po, route oral GAVAGE, vehicle .5 % CMC; for ABSOLUTE BASOPHIL / ABSOLUTE EOSINOPHIL / ABSOLUTE LYMPHOCYTE / ABSOLUTE MONOCYTE / ABSOLUTE SEGMENTED NEUTROPHIL / BASOPHIL / EOSINOPHIL / ERYTHROCYTE COUNT / HEMATOCRIT / HEMOGLOBIN / LEUKOCYTE COUNT / LYMPHOCYTE / MEAN CORPUSCULAR HEMOGLOBIN / MEAN CORPUSCULAR HEMOGLOBIN CONCENTRATION / MEAN CORPUSCULAR VOLUME / MONOCYTE / NEUTROPHIL / NUCLEATED RED BLOOD CELLS / PLATELET COUNT: tissue Blood; for ALANINE AMINOTRANSFERASE / ALBUMIN / ALKALINE PHOSPHATASE / ASPARTATE AMINOTRANSFERASE / BLOOD UREA NITROGEN / CARBON DIOXIDE / CHLORIDE / CHOLESTEROL / CREATINE PHOSPHOKINASE / CREATININE / GLUCOSE / LACTATE DEHYDROGENASE / LIPASE / PHOSPHORUS / POTASSIUM / SODIUM / TOTAL BILIRUBIN / TOTAL PROTEIN / URIC ACID: tissue Plasma
[1] = 10 mg/kg, 72 h, dose level Low, time 3 day
[2] = 10 mg/kg, 120 h, dose level Low, time 5 day
[3] = 310 mg/kg, 72 h, dose level High, time 3 day
[4] = 310 mg/kg, 120 h, dose level High, time 5 day

## O=C1CN=C(c2ccccc2)c2cc([N+](=O)[O-])ccc2N1 [NITRAZEPAM]
[1]
  ABSOLUTE BASOPHIL: 0 CELLS/uL
  ABSOLUTE EOSINOPHIL: 19 CELLS/uL
  ABSOLUTE LYMPHOCYTE: 6878.67 CELLS/uL
  ABSOLUTE MONOCYTE: 19 CELLS/uL
  ABSOLUTE SEGMENTED NEUTROPHIL: 750 CELLS/uL
  BASOPHIL: 0%
  EOSINOPHIL: 0.33%
  ERYTHROCYTE COUNT: 5.13 x10E6/uL
  HEMATOCRIT: 31.73%
  HEMOGLOBIN: 12.93 G/DL
  LEUKOCYTE COUNT: 7.67 x10E3/uL
  LYMPHOCYTE: 90.33%
  MEAN CORPUSCULAR HEMOGLOBIN: 25.23 pg
  MEAN CORPUSCULAR HEMOGLOBIN CONCENTRATION: 40.73 G/DL
  MEAN CORPUSCULAR VOLUME: 61.9 fL
  MONOCYTE: 0.33%
  NEUTROPHIL: 9%
  NUCLEATED RED BLOOD CELLS: 0 /100WBC
  PLATELET COUNT: 847 x10E3/uL
  ALANINE AMINOTRANSFERASE: 48.67 u/L
  ALBUMIN: 4.23 G/DL
  ALKALINE PHOSPHATASE: 424.33 u/L
  ASPARTATE AMINOTRANSFERASE: 76.67 u/L
  BLOOD UREA NITROGEN: 15 mg/dL
  CARBON DIOXIDE: 31 mmol/L
  CHLORIDE: 103 MEQ/L
  CHOLESTEROL: 76.67 mg/dL
  CREATINE PHOSPHOKINASE: 169 u/L
  CREATININE: 0.18 mg/dL
  GLUCOSE: 141.67 mg/dL
  LACTATE DEHYDROGENASE: 124.67 u/L
  LIPASE: 10 u/L
  PHOSPHORUS: 10.73 mg/dL
  POTASSIUM: 5.83 MEQ/L
  SODIUM: 149.6 MEQ/L
  TOTAL BILIRUBIN: 0.2 mg/dL
  TOTAL PROTEIN: 5.43 G/DL
  URIC ACID: 0.9 mg/dL
[2]
  ABSOLUTE BASOPHIL: 0 CELLS/uL
  ABSOLUTE EOSINOPHIL: 0 CELLS/uL
  ABSOLUTE LYMPHOCYTE: 11358.67 CELLS/uL
  ABSOLUTE MONOCYTE: 0 CELLS/uL
  ABSOLUTE SEGMENTED NEUTROPHIL: 1008 CELLS/uL
  BASOPHIL: 0%
  EOSINOPHIL: 0%
  ERYTHROCYTE COUNT: 5.81 x10E6/uL
  HEMATOCRIT: 35.47%
  HEMOGLOBIN: 13.93 G/DL
  LEUKOCYTE COUNT: 12.37 x10E3/uL
  LYMPHOCYTE: 92%
  MEAN CORPUSCULAR HEMOGLOBIN: 24.07 pg
  MEAN CORPUSCULAR HEMOGLOBIN CONCENTRATION: 39.33 G/DL
  MEAN CORPUSCULAR VOLUME: 61.13 fL
  MONOCYTE: 0%
  NEUTROPHIL: 8%
  NUCLEATED RED BLOOD CELLS: 0 /100WBC
  PLATELET COUNT: 1206.67 x10E3/uL
  ALANINE AMINOTRANSFERASE: 43.67 u/L
  ALBUMIN: 4.43 G/DL
  ALKALINE PHOSPHATASE: 331.67 u/L
  ASPARTATE AMINOTRANSFERASE: 77.33 u/L
  BLOOD UREA NITROGEN: 18 mg/dL
  CARBON DIOXIDE: 26.67 mmol/L
  CHLORIDE: 102 MEQ/L
  CHOLESTEROL: 67.67 mg/dL
  CREATINE PHOSPHOKINASE: 186.67 u/L
  CREATININE: 0.2 mg/dL
  GLUCOSE: 147.33 mg/dL
  LACTATE DEHYDROGENASE: 109.33 u/L
  LIPASE: 9.33 u/L
  PHOSPHORUS: 13.13 mg/dL
  POTASSIUM: 6.92 MEQ/L
  SODIUM: 147.33 MEQ/L
  TOTAL BILIRUBIN: 0.23 mg/dL
  TOTAL PROTEIN: 6.4 G/DL
  URIC ACID: 2.13 mg/dL
[3]
  ABSOLUTE BASOPHIL: 0 CELLS/uL
  ABSOLUTE EOSINOPHIL: 0 CELLS/uL
  ABSOLUTE LYMPHOCYTE: 11568.33 CELLS/uL
  ABSOLUTE MONOCYTE: 226.67 CELLS/uL
  ABSOLUTE SEGMENTED NEUTROPHIL: 871.67 CELLS/uL
  BASOPHIL: 0%
  EOSINOPHIL: 0%
  ERYTHROCYTE COUNT: 5.41 x10E6/uL
  HEMATOCRIT: 34%
  HEMOGLOBIN: 13.63 G/DL
  LEUKOCYTE COUNT: 12.67 x10E3/uL
  LYMPHOCYTE: 90.67%
  MEAN CORPUSCULAR HEMOGLOBIN: 25.23 pg
  MEAN CORPUSCULAR HEMOGLOBIN CONCENTRATION: 40.1 G/DL
  MEAN CORPUSCULAR VOLUME: 62.87 fL
  MONOCYTE: 1.67%
  NEUTROPHIL: 7.67%
  NUCLEATED RED BLOOD CELLS: 0 /100WBC
  PLATELET COUNT: 1116 x10E3/uL
  ALANINE AMINOTRANSFERASE: 48 u/L
  ALBUMIN: 4.03 G/DL
  ALKALINE PHOSPHATASE: 270 u/L
  ASPARTATE AMINOTRANSFERASE: 93.33 u/L
  BLOOD UREA NITROGEN: 15.67 mg/dL
  CARBON DIOXIDE: 27.67 mmol/L
  CHLORIDE: 100 MEQ/L
  CHOLESTEROL: 88.67 mg/dL
  CREATINE PHOSPHOKINASE: 222.67 u/L
  CREATININE: 0.17 mg/dL
  GLUCOSE: 150.33 mg/dL
  LACTATE DEHYDROGENASE: 150.67 u/L
  LIPASE: 8 u/L
  PHOSPHORUS: 11.93 mg/dL
  POTASSIUM: 6.17 MEQ/L
  SODIUM: 143.67 MEQ/L
  TOTAL BILIRUBIN: 0.2 mg/dL
  TOTAL PROTEIN: 5.7 G/DL
  URIC ACID: 1.3 mg/dL
[4]
  ABSOLUTE BASOPHIL: 0 CELLS/uL
  ABSOLUTE EOSINOPHIL: 37.33 CELLS/uL
  ABSOLUTE LYMPHOCYTE: 8871.33 CELLS/uL
  ABSOLUTE MONOCYTE: 96.67 CELLS/uL
  ABSOLUTE SEGMENTED NEUTROPHIL: 1228 CELLS/uL
  BASOPHIL: 0%
  EOSINOPHIL: 0.33%
  ERYTHROCYTE COUNT: 6.24 x10E6/uL
  HEMATOCRIT: 37.73%
  HEMOGLOBIN: 14.83 G/DL
  LEUKOCYTE COUNT: 10.23 x10E3/uL
  LYMPHOCYTE: 86.67%
  MEAN CORPUSCULAR HEMOGLOBIN: 23.77 pg
  MEAN CORPUSCULAR HEMOGLOBIN CONCENTRATION: 39.33 G/DL
  MEAN CORPUSCULAR VOLUME: 60.47 fL
  MONOCYTE: 1%
  NEUTROPHIL: 12%
  NUCLEATED RED BLOOD CELLS: 0 /100WBC
  PLATELET COUNT: 1180.33 x10E3/uL
  ALANINE AMINOTRANSFERASE: 39.67 u/L
  ALBUMIN: 4.13 G/DL
  ALKALINE PHOSPHATASE: 195.33 u/L
  ASPARTATE AMINOTRANSFERASE: 76.33 u/L
  BLOOD UREA NITROGEN: 17.33 mg/dL
  CARBON DIOXIDE: 26.33 mmol/L
  CHLORIDE: 104 MEQ/L
  CHOLESTEROL: 87.67 mg/dL
  CREATINE PHOSPHOKINASE: 160 u/L
  CREATININE: 0.19 mg/dL
  GLUCOSE: 148.67 mg/dL
  LACTATE DEHYDROGENASE: 101 u/L
  LIPASE: 40.67 u/L
  PHOSPHORUS: 9.83 mg/dL
  POTASSIUM: 6.59 MEQ/L
  SODIUM: 145.77 MEQ/L
  TOTAL BILIRUBIN: 0.13 mg/dL
  TOTAL PROTEIN: 6 G/DL
  URIC ACID: 1.17 mg/dL
